Legend:
[1] = target: T1, PLIN3 Perilipin-3 (Homo sapiens, UniProt O60664); assay: competitive isoTOP-ABPP; type: binding
T1 construct: isoTOP-ABPP experiments performed in cell lysates (in vitro); endogenous in cells; host or cells: MDA-MB-231 soluble lysate
T1 sequence (O60664 1-434): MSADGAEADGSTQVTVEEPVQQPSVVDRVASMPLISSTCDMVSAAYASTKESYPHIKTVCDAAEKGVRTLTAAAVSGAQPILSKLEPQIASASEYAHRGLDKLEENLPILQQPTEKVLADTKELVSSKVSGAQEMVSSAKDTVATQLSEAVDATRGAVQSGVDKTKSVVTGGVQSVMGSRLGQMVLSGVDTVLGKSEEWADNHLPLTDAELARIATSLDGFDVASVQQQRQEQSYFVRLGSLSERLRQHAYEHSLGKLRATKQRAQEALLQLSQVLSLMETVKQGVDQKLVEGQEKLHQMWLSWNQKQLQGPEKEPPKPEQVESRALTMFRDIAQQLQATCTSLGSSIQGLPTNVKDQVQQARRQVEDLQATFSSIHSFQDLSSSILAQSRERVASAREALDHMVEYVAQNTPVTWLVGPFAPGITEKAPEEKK
Method: In vitro covalent fragment treatment for isoTOP-ABPP. All compounds were made up as solutions in DMSO (100×) and were used at a final concentration of 50 μM for activated esters and 100 μM for guanidinylating agents. For each profiling sample, 0.5 ml of lysate was treated with 5 μl of the 100× compound stock solution or 5 μl of DMSO. Samples were treated with activated esters for
STP-alkyne labeling and click chemistry. For concentration-dependent reactivity measurements by isoTOP-ABPP, 0.5 ml proteome aliquots were treated at ambient temperature with 1 mM STP-alkyne 1 (5 μl of 100 mM stock in DMSO) and 0.1 mM STP alkyne 1 (5 μl of 10 mM stock in DMSO), respectively. For competitive isoTOP-ABPP, after in vitro fragment treatment (detailed above), the samples were labeled for 1 h at ambient temperature with 0.1 mM STP-alkyne 1 (5 μl of 10 mM stock in DMSO). Samples were conjugated by copper-mediated azide-alkyne cycloaddition (CuAAC) to either the light (1 mM STP-alkyne or fragment treated) or heavy (0.1 mM STP-alkyne or DMSO treated) TEV tags (10 μl of 5 mM stocks in DMSO, final concentration=100 μM) using tris(2-carboxyethyl)phosphine hydrochloride
R value calculation and processing. The ratios of light and heavy MS1 peaks for each unique peptide were quantified with a CIMAGE software using default parameters (3 MS1 acquisitions per peak and signal to noise threshold set to 2.5). For reactivity measurements by isoTOP-ABPP, the R value was calculated from the ratio of MS1 peak areas, comparing the 1 mM STP alkyne sample (light TEV tag) with the 0.1 mM STP alkyne sample (heavy TEV tag). For competitive isoTOP-ABPP, the R value was calculated from the ratio of MS1 peak areas, comparing the DMSO treated sample (heavy TEV tag) with the compound treated sample (light TEV tag). […] Ratios for unique peptide entries are calculated for each experiment; overlapping peptides with the same modified lysine (for example, different charge states, MudPIT chromatographic steps or tryptic termini) are grouped together and the median ratio is reported as the final ratio (R). The peptide ratios reported by CIMAGE were further filtered to ensure the removal or correction of low-quality ratios in each individual data set. The quality filters applied were the following: removal of half tryptic peptides; for ratios with high standard deviations from the median (90% of the median or above) the lowest ratio was taken instead of the median; removal of peptides with R=20 and only a single MS2 event triggered during the elution of the parent ion; manual annotation of all the peptides with ratios of 20, removing any peptides with low quality elution profiles that remained after the previous curation steps (only done for competitive isoTOP-ABPP).
Cross-data processing for fragment screening. For compound treated samples, biological replicates of the same condition were averaged, if the standard deviation was below 60% of the mean; otherwise, for lysines with at least one R value <4 for a particular compound, the lowest value of the ratio set was taken. For lysines, where all R values for a particular compound were ≥4, the average was reported. For peptides containing several possible modified lysines, the lysine with the highest number of quantification events was used for analysis and the remaining, redundant peptides were reported as alternative modification sites. Peptides included in the aggregate dataset (those used for further bioinformatics and statistical analyses) were required to have been quantified in 2 experiments for competitive isoTOP-ABPP. Lysines were categorized as liganded, if they had at least one ratio R≥4 (hit fragments). For liganded lysines with R=20 for all liganding events, lysines were required to have been quantified with R=20 in two separate experiments and were further required to have been quantified with R<20 in one additional experiment.

[2] = target: T2, EEF1G Elongation factor 1-gamma (Homo sapiens, UniProt P26641); assay: competitive isoTOP-ABPP; type: binding
T2 construct: isoTOP-ABPP experiments performed in cell lysates (in vitro); endogenous in cells; host or cells: soluble proteome of human cancer cell lines (MDA-MB-231; Ramos and Jurkat also prepared)
T2 sequence (P26641 whole entry): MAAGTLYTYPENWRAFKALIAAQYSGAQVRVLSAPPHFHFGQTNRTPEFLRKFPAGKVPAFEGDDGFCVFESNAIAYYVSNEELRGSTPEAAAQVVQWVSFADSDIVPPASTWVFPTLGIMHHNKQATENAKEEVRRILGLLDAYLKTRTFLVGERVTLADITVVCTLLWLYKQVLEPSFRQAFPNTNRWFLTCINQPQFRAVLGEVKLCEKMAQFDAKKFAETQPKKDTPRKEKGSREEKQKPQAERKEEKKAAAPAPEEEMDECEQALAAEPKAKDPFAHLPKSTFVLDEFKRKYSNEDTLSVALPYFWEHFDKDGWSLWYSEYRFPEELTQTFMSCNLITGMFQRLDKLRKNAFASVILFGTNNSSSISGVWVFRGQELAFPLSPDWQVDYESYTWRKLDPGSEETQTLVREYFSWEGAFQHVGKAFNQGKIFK
In short: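 Readout: isotopic light/heavy MS1 peak-area ratio (R, DMSO heavy over compound light), median across peptides sharing a modified lysine. Lysate received fragment (activated esters 50 μM, guanidinylating agents 100 μM final) or DMSO, then 0.1 mM STP-alkyne probe for 1 h at ambient temperature.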

Row | SMILES | isoTOP-ABPP ratio, lysine O60664_K257 ([1]; 50 uM_231_sol_in vitro) | isoTOP-ABPP ratio, lysine P26641_K227 ([2]; 50 uM_231_sol_in vitro) | isoTOP-ABPP ratio, lysine O60664_K140 ([1]; 50 uM_231_sol_in vitro) | isoTOP-ABPP ratio, lysine O60664_K140 ([1]; 100 uM_231_sol_in vitro) | isoTOP-ABPP ratio, lysine P26641_K227 ([2]; 100 uM_231_sol_in vitro)
1 | N#Cc1ccc(C(=O)Oc2ccc([N+](=O)[O-])cc2[N+](=O)[O-])cc1 [fragment 44, 2,4-Dinitrophenyl 4-cyanobenzoate] | 1.9 | 0.8 | – | – | –
2 | O=C(CCc1ccc2c(c1)OCO2)Oc1ccc([N+](=O)[O-])cc1[N+](=O)[O-] [fragment 45, 2,4-Dinitrophenyl 3-(benzo[d][1,3]dioxol-5-yl)propanoate] | 2.5 | 0.6 | 2.1 | – | –
3 | O=C(ON1C(=O)CCC1=O)c1cc(C(F)(F)F)cc(C(F)(F)F)c1 [fragment 46, 3,5-Bis(trifluoromethyl)benzoic acid NHS ester] | 0.6 | 0.6 | – | – | –
4 | CC(C)(C)OC(=O)N=C(NC(=O)OC(C)(C)C)n1cccn1 [fragment 50, reference compound] | – | – | – | 1.8 | 1.2
5 | NC(=O)c1cc(C(F)(F)F)cc(C(F)(F)F)c1 [fragment 51, reference compound] | 1.0 | 0.9 | – | – | –
